From patent EP4806900A2, “RAS INHIBITORS” (Revolution Medicines, Inc., priority 2019, dated 2021)

System: NCI-H358 (K-Ras G12C)
Experiment: CellTiter-Glo cell viability assay, NCI-H358
Type: cell-based, human
Conditions: Table 5; read-out: H358 Cell Viability assay data (K-Ras G12C, IC50)
Experimental: Note - The following protocol describes a procedure for monitoring cell viability of K-Ras mutant cancer cell lines in response to a compound of the invention. Other RAS isoforms may be employed, though the number of cells to be seeded will vary based on cell line used.
Test compounds (132.5 nL) were directly dispensed into the assay plates containing cells. […] On day 5, assay plates and their contents were equilibrated to room temperature for approximately 30 minutes. […] Luminescence was measured using the PerkinElmer Enspire. Data were normalized by the following: (Sample signal/Avg. DMSO)*100. The data were fit using a four-parameter logistic fit.

SMILES	IC50 [µM]
C=CC(=O)N1CC[C@H](C(=O)N(C)[C@H](C(=O)N[C@H]2Cc3cc(N)cc(c3)-c3ccc4c(c3)c(c(-c3ccccc3CCOC)n4CC)CC(C)(C)COC(=O)[C@@H]3CCCN(N3)C2=O)C(C)C)C1 [Compound A2, (2S)-N-[(8S,14S)-4-amino-22-ethyl-21-[2-(2-methoxyethyl)phenyl]-18,18-dimethyl-9,15-dioxo-16-oxa-10,22,28-triazapentacyclo[18.5.2.1^2,6.1^10,^14.0^23,^27]nonacosa-1(26),2,4,6(29),20,23(27),24-heptaen-8-yl]-3-methyl-2-{N-methyl-1-[(3S)-1-(prop-2-enoyl)pyrrolidin-3-yl]formamido}butanamide]	> 1
C=CC(=O)N1CC[C@H](C(=O)N(C)[C@H](C(=O)N[C@H]2Cc3cc(O)cc(c3)-c3ccc4c(c3)c(c(-c3ccc(CN(C)C)cc3)n4CC)CC(C)(C)COC(=O)[C@@H]3CCCN(N3)C2=O)C(C)C)C1 [Compound A3]	0.1 to 1
C=CC(=O)N1CC[C@H](C(=O)N(C)[C@H](C(=O)N[C@H]2Cc3cc(O)cc(c3)-c3ccc4c(c3)c(c(-c3ccccc3CN(C)C)n4CC)CC(C)(C)COC(=O)[C@@H]3CCCN(N3)C2=O)C(C)C)C1 [Compound A5]	0.01 to 0.1
C=CC(=O)N1CC[C@H](C(=O)N(C)[C@H](C(=O)N[C@H]2Cc3cc(O)cc(c3)-c3ccc4c(c3)c(c(-c3ccccc3CCOC)n4CC)CC(C)(C)COC(=O)[C@@H]3CCCN(N3)C2=O)C2CCOCC2)C1 [Compound A6]	0.1 to 1
C=CC(=O)N1CC[C@H](C(=O)N(C)[C@H](C(=O)N[C@H]2Cc3cc(OC(=O)CCN4CCN(C)CC4)cc(c3)-c3ccc4c(c3)c(c(-c3ccccc3CCOC)n4CC)CC(C)(C)COC(=O)[C@@H]3CCCN(N3)C2=O)C(C)C)C1 [Compound A7]	0.1 to 1
C=CC(=O)N1CC[C@H](C(=O)N(C)[C@H](C(=O)N[C@H]2Cc3cc(OC(=O)CN)cc(c3)-c3ccc4c(c3)c(c(-c3ccccc3CCOC)n4CC)CC(C)(C)COC(=O)[C@@H]3CCCN(N3)C2=O)C(C)C)C1 [Compound A8]	0.1 to 1
C=CC(=O)N1CC[C@H](C(=O)N(C)[C@H](C(=O)N[C@H]2Cc3cc(cc(O)c3F)-c3ccc4c(c3)c(c(-c3ccccc3CCOC)n4CC)CC(C)(C)COC(=O)[C@@H]3CCCN(N3)C2=O)C(C)C)C1 [Compound A9]	0.1 to 1
C=CC(=O)N1CCC(F)(C(=O)N(C)[C@H](C(=O)N[C@H]2Cc3cc(O)cc(c3)-c3ccc4c(c3)c(c(-c3ccccc3CCOC)n4CC)CC(C)(C)COC(=O)[C@@H]3CCCN(N3)C2=O)C(C)C)CC1 [Compound A11]	0.1 to 1
C=CC(=O)N1CCCN(C(=O)N(C)[C@H](C(=O)N[C@H]2Cc3cc(O)cc(c3)-c3ccc4c(c3)c(c(-c3ccccc3CCOC)n4CC)CC(C)(C)COC(=O)[C@@H]3CCCN(N3)C2=O)C(C)C)CC1 [Compound A13]	0.1 to 1
C=CC(=O)N1CCC(C(=O)N(C)[C@H](C(=O)N[C@H]2Cc3cc(O)cc(c3)-c3ccc4c(c3)c(c(-c3ccccc3CCOC)n4CC)CC(C)(C)COC(=O)[C@@H]3CCCN(N3)C2=O)C(C)C)CC1 [Compound A14]	0.1 to 1
C=CC(=O)N1CC[C@H](C(=O)N(C)[C@H](C(=O)N[C@H]2Cc3cc(O)cc(c3)-c3ccc4c(c3)c(c(-c3cccnc3COC)n4CC)CC(C)(C)COC(=O)[C@@H]3CCCN(N3)C2=O)C(C)C)C1 [Compound A16]	0.01 to 0.1
C=CC(=O)N1CC[C@H](C(=O)N(C)[C@H](C(=O)N[C@H]2Cc3cc(O)cc(c3)-c3ccc4c(c3)c(c(-c3ccccc3OC)n4CC)CC(C)(C)COC(=O)[C@@H]3CCCN(N3)C2=O)C(C)C)C1 [Compound A17]	0.1 to 1
C=CC(=O)N1CCN(C(=O)N(C)[C@H](C(=O)N[C@H]2Cc3cc(O)cc(c3)-c3ccc4c(c3)c(c(-c3ccccc3CCOC)n4CC)CC(C)(C)COC(=O)[C@@H]3CCCN(N3)C2=O)C(C)C)CC1 [Compound A18]	0.1 to 1
CCn1c(-c2ccccc2CCOC)c2c3cc(ccc31)-c1cc(O)cc(c1)C[C@H](NC(=O)[C@H](C(C)C)N(C)C(=O)C1CCN(C(=O)/C=C/CN(C)C)CC1)C(=O)N1CCC[C@H](N1)C(=O)OCC(C)(C)C2 [Compound A19]	0.1 to 1
C=CC(=O)N1CCC(F)(C(=O)N(C)[C@H](C(=O)N[C@H]2Cc3cc(O)cc(c3)-c3ccc4c(c3)c(c(-c3ccccc3CN(C)C)n4CC)CC(C)(C)COC(=O)[C@@H]3CCCN(N3)C2=O)C(C)C)CC1 [Compound A20]	0.01 to 0.1
C=CC(=O)N1CC[C@H](C(=O)N(C)[C@H](C(=O)N[C@H]2Cc3cc(O)cc(c3)-c3ccc4c(c3)c(c(-c3ccc(CC(=O)O)cc3)n4CC)CC(C)(C)COC(=O)[C@@H]3CCCN(N3)C2=O)C(C)C)C1 [Compound A21]	> 1
C=CC(=O)N1CC[C@H](C(=O)N(C)[C@H](C(=O)N[C@H]2Cc3cc(O)cc(c3)-c3ccc4c(c3)c(c(-c3ccccc3[C@H](C)OC)n4CC)CC(C)(C)COC(=O)[C@@H]3CCCN(N3)C2=O)C(C)C)C1 [Compound A22]	0.01 to 0.1
C=CC(=O)N1CC[C@H](C(=O)N(C)[C@H](C(=O)N[C@H]2Cc3cc(O)cc(c3)-c3ccc4c(c3)c(c(-c3ccccc3)n4CC)CC(C)(C)COC(=O)[C@@H]3CCCN(N3)C2=O)C(C)C)C1 [Compound A23]	0.1 to 1

SMILES	IC50 [µM]
C=CC(=O)N1CC[C@H](C(=O)N(C)[C@H](C(=O)N[C@H]2Cc3cccc(c3)-c3ccc4c(c3)c(c(-c3ccccc3CCOC)n4CC)CC(C)(C)COC(=O)[C@@H]3CCCN(N3)C2=O)C(C)C)C1 [Compound A24]	> 1
C=CC(=O)N1CC[C@H](C(=O)N(C)[C@H](C(=O)N[C@H]2Cc3cc(O)cc(c3)-c3ccc4c(c3)c(c(-c3c(F)cccc3CCOC)n4CC)CC(C)(C)COC(=O)[C@@H]3CCCN(N3)C2=O)C(C)C)C1 [Compound A25]	0.1 to 1
C=CC(=O)N1CC[C@H](C(=O)N(C)[C@H](C(=O)N[C@H]2Cc3cc(O)cc(c3)-c3ccc4c(c3)c(c(-c3ccccc3N3CCOCC3)n4CC)CC(C)(C)COC(=O)[C@@H]3CCCN(N3)C2=O)C(C)C)C1 [Compound A26]	0.1 to 1
C=CC(=O)N1CC[C@H](C(=O)N(C)[C@H](C(=O)N[C@H]2Cc3cc(O)cc(c3)-c3ccc4c(c3)c(c(-c3ccccc3COC)n4CC)CC(C)(C)COC(=O)[C@@H]3CCCN(N3)C2=O)C2CCCC2)C1 [Compound A27]	0.01 to 0.1
C=CC(=O)N1CC[C@H](C(=O)N(C)[C@H](C(=O)N[C@H]2Cc3cc(O)cc(c3)-c3ccc4c(c3)c(c(-c3ccccc3[C@@H](C)OC)n4CC)CC(C)(C)COC(=O)[C@@H]3CCCN(N3)C2=O)C(C)C)C1 [Compound A29]	0.1 to 1
C=CC(=O)N1CC[C@H](C(=O)N(C)[C@H](C(=O)N[C@H]2Cc3cc(O)cc(c3)-c3ccc4c(c3)c(c(-c3cccc(CN(C)C)c3)n4CC)CC(C)(C)COC(=O)[C@@H]3CCCN(N3)C2=O)C(C)C)C1 [Compound A30]	0.01 to 0.1
C=CC(=O)N1CC2(CCN([C@H](C(=O)N[C@H]3Cc4cc(O)cc(c4)-c4ccc5c(c4)c(c(-c4ccccc4CCOC)n5CC)CC(C)(C)COC(=O)[C@@H]4CCCN(N4)C3=O)C(C)C)C2=O)C1 [Compound A31]	0.01 to 0.1
C=CC(=O)N1CCC(C(=O)N(C)[C@H](C(=O)N[C@H]2Cc3cc(O)cc(c3)-c3ccc4c(c3)c(c(-c3ccccc3CN(C)C)n4CC)CC(C)(C)COC(=O)[C@@H]3CCCN(N3)C2=O)C(C)C)CC1 [Compound A33]	0.1 to 1
C=CC(=O)N1CC[C@H](C(=O)N(C)[C@H](C(=O)N[C@H]2Cc3cc(O)cc(c3)-c3ccc4c(c3)c(c(-c3ccccc3CCOC)n4C(C)(C)C#N)CC(C)(C)COC(=O)[C@@H]3CCCN(N3)C2=O)C(C)C)C1 [Compound A34]	0.01 to 0.1
C=CC(=O)N1CC[C@H](C(=O)N(C)[C@H](C(=O)N[C@H]2Cc3cc(O)cc(c3)-c3ccc4c(c3)c(c(-c3ccc5cc(CN(C)C)n(C)c5c3)n4CC)CC(C)(C)COC(=O)[C@@H]3CCCN(N3)C2=O)C(C)C)C1 [Compound A35]	0.01 to 0.1
CCn1c(-c2ccccc2CCOC)c2c3cc(ccc31)-c1cc(O)cc(c1)C[C@H](NC(=O)[C@H](C(C)C)N(C)C(=O)[C@H]1CCN(C(=O)C#CCN(C)C)C1)C(=O)N1CCC[C@H](N1)C(=O)OCC(C)(C)C2 [Compound A38]	< 0.01
C=CC(=O)N1CC[C@H](C(=O)N(C)[C@H](C(=O)N[C@H]2Cc3cc(O)cc(c3)-c3ccc4c(c3)c(c(-c3ccc(C5CCN(C)CC5)cc3)n4CC)CC(C)(C)COC(=O)[C@@H]3CCCN(N3)C2=O)C(C)C)C1 [Compound A39]	0.01 to 0.1
C=CC(=O)N1CC[C@H](C(=O)N(C)[C@H](C(=O)N[C@H]2Cc3cc(O)cc(c3)-c3ccc4c(c3)c(c(-c3ccc5c(c3)CCN(C)C5)n4CC)CC(C)(C)COC(=O)[C@@H]3CCCN(N3)C2=O)C(C)C)C1 [Compound A40]	0.01 to 0.1
C=CC(=O)N1C[C@H](C)[C@H](C(=O)N(C)[C@H](C(=O)N[C@H]2Cc3cc(O)cc(c3)-c3ccc4c(c3)c(c(-c3ccccc3CCOC)n4CC)CC(C)(C)COC(=O)[C@@H]3CCCN(N3)C2=O)C(C)C)C1 [Compound A41]	0.01 to 0.1
C=CC(=O)N1CC[C@H](C(=O)N(C)[C@H](C(=O)N[C@H]2Cc3cc(N)cc(c3)-c3ccc4c(c3)c(c(-c3ccccc3COC)n4CC)CC(C)(C)COC(=O)[C@@H]3CCCN(N3)C2=O)C(C)C)C1 [Compound A42]	0.1 to 1
C=CC(=O)N1C[C@H](C)[C@H](C(=O)N(C)[C@H](C(=O)N[C@H]2Cc3cc(O)cc(c3)-c3ccc4c(c3)c(c(-c3ccccc3CN(C)C)n4CC)CC(C)(C)COC(=O)[C@@H]3CCCN(N3)C2=O)C2CCCC2)C1 [Compound A43]	0.01 to 0.1
C=CC(=O)N1CC[C@H](C(=O)N(C)[C@H](C(=O)N[C@H]2Cc3cc(O)cc(c3)-c3ccc4c(c3)c(c(-c3cccnc3COCC)n4CC)CC(C)(C)COC(=O)[C@@H]3CCCN(N3)C2=O)C(C)C)C1 [Compound A44]	0.01 to 0.1
C=CC(=O)N1CC[C@H](C(=O)N(C)[C@H](C(=O)N[C@H]2Cc3cc(O)cc(c3)-c3ccc4c(c3)c(c(-c3cccnc3)n4CC)CC(C)(C)COC(=O)[C@@H]3CCCN(N3)C2=O)C(C)C)C1 [Compound A45]	0.01 to 0.1
